Experimental data from patent US9273043B2, “TRPV1 antagonists including dihydroxy substituent and uses thereof” (Purdue Pharma L.P., priority 2011, dated 2016).
In brackets after ≈: the same amount, converted by molar mass. Read-outs that look alike come from different tables or passages of the source.

Columns and labels:
[1] = target: T1, human TRPV1 (Homo sapiens (Human), UniProt Q8NER1); assay: Capsaicin-based assay, Protocol 2, TRPV1/CHO cells (hCAP-CHO), Fluo-4 FLIPR; assay type: cell-based; details: 100 nM capsaicin, mean ± SEM
T1 sequence (Q8NER1 whole entry, looked up, the tested form may be a part): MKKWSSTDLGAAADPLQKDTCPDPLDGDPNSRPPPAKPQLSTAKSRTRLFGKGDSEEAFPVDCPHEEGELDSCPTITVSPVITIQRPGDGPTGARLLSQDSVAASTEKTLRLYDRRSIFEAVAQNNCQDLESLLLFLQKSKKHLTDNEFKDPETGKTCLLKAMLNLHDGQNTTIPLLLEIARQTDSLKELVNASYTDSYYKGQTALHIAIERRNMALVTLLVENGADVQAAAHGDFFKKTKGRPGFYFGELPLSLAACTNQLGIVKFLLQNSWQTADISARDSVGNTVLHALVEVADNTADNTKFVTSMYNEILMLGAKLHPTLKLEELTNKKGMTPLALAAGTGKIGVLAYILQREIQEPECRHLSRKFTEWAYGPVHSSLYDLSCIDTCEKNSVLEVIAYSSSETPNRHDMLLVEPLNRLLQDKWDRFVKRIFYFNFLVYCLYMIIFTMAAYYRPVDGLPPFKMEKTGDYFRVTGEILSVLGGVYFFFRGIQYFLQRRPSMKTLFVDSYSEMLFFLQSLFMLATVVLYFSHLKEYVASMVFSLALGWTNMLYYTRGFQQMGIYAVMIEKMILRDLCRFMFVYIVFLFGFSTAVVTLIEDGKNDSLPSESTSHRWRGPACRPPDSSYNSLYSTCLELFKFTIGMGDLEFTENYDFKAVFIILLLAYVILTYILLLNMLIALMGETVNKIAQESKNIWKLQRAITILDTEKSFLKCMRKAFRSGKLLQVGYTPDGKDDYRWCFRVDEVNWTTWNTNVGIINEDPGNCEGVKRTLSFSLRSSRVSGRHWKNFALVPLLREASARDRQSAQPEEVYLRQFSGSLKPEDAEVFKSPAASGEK
Source text: The TRPV1/CHO cell line was generated as described below. […] The resulting PCR products were purified from agarose gels using Gel Band Purification Kit (GE Healthcare Bioscience) and were subcloned into pCR-Blunt vector (Invitrogen). The cloned cDNA was fully sequenced using a fluorescent dye-terminator reagent (BigDye Terminator ver3.1 Cycle Sequencing Kit, Applied Biosystems) and ABI Prism 3100 genetic analyzer (Applied Biosystems). The pCR-Blunt vector containing the hTRPV1 cDNA was subjected to restriction digestion with EcoR1. The restriction fragment was subcloned into expression vector pcDNA3.1(-) (Invitrogen) and named pcDNA3.1(-)-hVR1 plasmid. The sequence of the cDNA encoding TRPV1 is available at GenBank accession number AJ277028. […] The cells were transfected with the pcDNA3.1(-)-hVR1 plasmid using FuGENE6 (Roche) according to the manufacturer's protocol. 24 hr after transfection, neomycin-resistant cells were selected using 1 mg/mL G418 (Nacalai Tesque). […] The cells expressing hTRPV1 were cultured in the growth medium supplemented with 1 mg/mL G418. […] Capsaicin-based Assay: […] Subsequently, the cells were loaded by incubation in 0.1 mL of wash buffer containing Fluo-4 at 3 μM final concentration. After 1 hour, the cells were washed twice with 0.2 mL wash buffer and resuspended in 0.1 mL wash buffer. The plates were then transferred to a Fluorescence Imaging Plate Reader (Molecular Devices). Fluorescence intensity was monitored for 15 seconds to establish a baseline. […] The final concentration of the compound was adjusted to range from 100 μM to 1.5625 μM. […] Data were collected over the entire time course and analyzed using Excel and the curve-fitting formula GraphPad Prism.

[2] = target: T1, human TRPV1; assay: pH-based assay, Protocol 2, TRPV1/CHO cells (hpH-CHO), Fura-2 Ca2+ influx; assay type: cell-based; details: pH 5.0-5.1 (H2SO4), mean ± SEM
Description: For Protocol 2, a Chinese Hamster Ovary cell line (CHO) that has been engineered to constitutively express human recombinant TRPV1 was used (TRPV1/CHO cells). The TRPV1/CHO cell line was generated as described below.
TRPV1/CHO cells were seeded in the 96-well clear-bottom black-wall plate (Nunc) at densities of 1-2×10^4 cells/well and grown in 100 μL of culture medium (alpha-MEM supplemented with 10% FBS, 20 mM HEPES, 1 mg/mL geneticin and 1% antibiotic-antimycotic mixed stock solution) for 1-2 days before the experiment.
(1) Culture medium was removed using an 8-channel-pipette (Rainin, USA) from the 96-well plate and the wells were refilled with 100 μL of loading buffer (20 mM HEPES, 115 mM NaCl, 5.4 mM KCl, 0.8 mM MgCl2, 1.8 mM CaCl2, 13.8 mM D-glucose, 2.5 mM probenecid, pH 7.4) containing 5 μM Fura-2 AM (Dojin, Japan).
(2) The 96-well plate was incubated at 37° C. for 45 min.
(3) The loading buffer was removed from each well. The cells were subsequently washed twice with 150 μL of measuring buffer (20 mM HEPES, 115 mM NaCl, 5.4 mM KCl, 0.8 mM MgCl2, 5.0 mM CaCl2, 13.8 mM D-glucose, 0.1% BSA, pH 7.4) (no probenecid). The wells were then refilled with 80 μL of measuring buffer.
(4) After an incubation at 4° C. for 15 min, the 96-well plate was transferred to a model FDSS-3000 plate reader apparatus (Hamamatsu Photonics K.K., Japan).
(5) The Fura-2 fluorescent intensity was monitored at a wavelength of 340 nm and at 380 nm, respectively, at a rate of 0.5 Hz for a total of 240 seconds. After 16 time points (32 sec) of baseline detection, 20 μL of agonist solution was added to each well. The final volume was 100 μL/well.
(6) Fluorescence intensity ratio refers to the fluorescence intensity at 340 nm over the fluorescence intensity at 380 nm at a particular time point. The baseline was set as the average of the fluorescent intensity ratios for the first 16 time points before the addition of agonist solution. The maximum response was the highest fluorescent intensity ratio during the 60 time points following addition of agonist solution.
(7) Maximal signal ratios from each well were calculated as output data using the FDSS-3000 analysis program. Data were analyzed using Excel (Microsoft) and XLfit (idbs) software.
In an “agonist plate,” two different agonist solutions with different H2SO4 concentrations were used for the pH assay (see, e.g., FIG. 3A of U.S. Patent Application Publication No. US 2009/0170868 A1). For the first half of a 96-well plate one agonist solution was used; for the second half the other agonist solution was used. The agonist solutions were obtained by diluting sulfuric acid (1M H2SO4) with measuring buffer. The concentrations for the two agonist solutions were determined as described above in Section 2 of Protocol 2.
The sulfuric acid concentrations between the two agonist solutions differed by 0.5 mM. In the experiment described in Section 2 of Protocol 2, the sulfuric acid concentrations in the agonist solutions were determined to be 16 mM and 16.5 mM, respectively. After 1:4 dilution of the agonist solutions, the final sulfuric acid concentration was 3.2 mM and 3.3 mM, respectively. The resulting pH value for the pH assay was 5.0 to 5.1.
Test compounds were dissolved in DMSO to yield 1 mM stock solutions. The stock solutions were further diluted using DMSO in […] serial dilution steps with 6 points (1000, 250, 62.5, 15.625, 3.9062, and 0.977 μM). The thereby-obtained solutions were further diluted in measuring buffer (1:100) as 10× stock serial dilutions with a DMSO concentration of 1%. 10 μL of a 10× stock was added into each well of an “antagonist plate” (see step 3.3.(4) below). Thus, the final concentrations of antagonists was as follows: 0.977, 3.906, 15.63, 62.5, 250, and 1000 nM containing 0.1% DMSO (see, e.g., FIG. 3B of U.S. Patent Application Publication No. US 2009/0170868 A1).
Steps (1) and (2) of this Assay were the same as steps 2.2.(1) and 2.2.(2), respectively, of Protocol 2. […]

[3] = target: T1, human TRPV1; assay: Human TRPV1 heat-based assay, hTRPV1/CHO cells (hHeat-CHO); assay type: cell-based; details: temperature ramp 25 to 45 °C, mean ± SEM
Description: Human TRPV1 Heat-based Assay:
CHO cells stably expressing human TRPV1 (hTRPV1) were used. Functional assessment of heat-induced activation of hTRPV1 was carried out in a cell-based Ca^2+ flux assay using ABI7500 Fast Real-Time PCR System as described in Reubish et al., “Functional assessment of temperature-gated ion-channel activity using a real-time PCR machine,” www.BioTechniques.com 47(3):iii-ix (2009), which is hereby incorporated by reference. Briefly, hTRPV1/CHO cells were cultured in growth media in a tissue culture dish at 37° C. in a CO2 incubator. On the day of the assay, culture media were removed and the cells were then detached using 0.05% trypsin at 37° C. with 5% CO2, for 90 s. The detached cells were centrifuged (1000 rpm, 4 min) to remove trypsin-containing supernatant and resuspended in assay buffer (115 mM NaCl, 5.4 mM KCl, 0.8 mM MgCl2.6H2O, 1.8 mM CaCl2.2H2O, 13.8 mM D-glucose, and 20 mM HEPES). Then, the cells were loaded with 5 μM Fluo-4, a Ca^2+ reporter dye, in the presence of 2.5 mM probenecid at 37° C. with 5% CO2, for 45 min. Thereafter, the cells were washed twice with measuring buffer (assay buffer supplemented with 0.1% BSA and 3.2 mM CaCl2) then transferred to a Fast 96-well Reaction Plate (0.1 mL) (Part no. 4346907, MICROAMP, Applied Biosystems, Foster City, Calif.). The cell density was 100,000 cells/24 μL/well. A solution of the compound under test (6 μL/well) was added into each well of the 96-well plate. Thus, the reaction volume per well was 30 μL.
The plates were then placed inside an ABI7500 Fast Real-Time PCR instrument (Applied Biosystems) to read fluorescence at different temperatures using 7500 software, version 2.0.2 (Applied Biosystems). The initial temperature was set at 25° C. for 1 min. followed by a temperature ramp to 45° C. in 100 s to deliver heat to cells. [Ca^2+], response of hTRPV1/CHO cells to heat was determined as: [fluorescence read at 45° C.−fluorescence read at 25° C.].
Compound concentration response curves and IC50 values were analyzed using GraphPad Prism 4 software (GraphPad Software, La Jolla, Calif.).
The IC50 data provided in Table 6 are shown as mean±standard error of the mean; the number of trials conducted for each assay is shown in parentheses except for only a single trial where no number of trials is shown in parentheses.

[4] = Aqueous solubility at pH 1.2 and pH 6.8; assay type: physicochemical; details: aqueous solution
[5] = In vivo assay of body temperature increase (rectal body temperature); design: species or system rat; details: rats, oral, 10 mL/kg of 1 mg/mL in 0.5% methylcellulose; greatest ΔTb versus vehicle control at 0.5, 1 or 2 hrs
Source text: Hyperthermia or undesirable elevation in animal body temperature is known to be an undesirable side-effect accompanying the administration of certain TRPV1 antagonists (Gavva, “Body-temperature maintenance as the predominant function of the vanilloid receptor TRPV1,” Trends Pharmacol. Sci. 29(11):550-557 (2008)).
Test Animals: Selection of rats (Crl/SD rats, 7 weeks, male) was based on rectal body temperature measured during the morning of the day of dosing as described below. In addition, to minimize spontaneous, stress-induced increases in body temperature, rats were acclimated in advance to both the rectal measurement procedure and to being handled and dosed. All lodging and testing took place in animal care laboratories with constant room temperature and humidity. The rats were free to move and ingest food and water throughout. Each rat was coded with a colored line on the tail, housed in a separate cage, and permitted the normal range of movement. Immediately before each body temperature measurement, a rat was transferred to a measurement cage. To reduce stress which could influence its body temperature, each rat was covered with towels during the measurement. A thermistor probe was then carefully inserted into the rectum of each rat and left in place until the temperature reading on the digital display had stabilized; this value was recorded.
Assay: On the day before dosing, rectal body temperature was measured at 9:00, 10:00, 11:00, 12:30, 13:30, 14:30, and 15:30 o'clock to familiarize the rats with the measurement procedure prior to administration of the test or control treatments. The rats were also dosed by oral gavage without vehicle at 12:30 o'clock to acclimate and familiarize them with the handling and dosing procedure.
On the day of dosing, only rats with rectal body temperatures within the range of from 37.0° C. to 37.7° C. were selected for study. Rectal body temperatures were measured at 9:00, 10:00, and 11:00 o'clock. Rats were excluded from the study if either their rectal body temperature was over 37.9° C. at 10:00 o'clock or was outside the range of from 37.0° C. to 37.7° C. at 11:00 o'clock. The selected rats were divided into several groups based on their rectal body temperatures at 11:00 o'clock. Rectal body temperatures of the selected rats were measured again at 12:30 o'clock and any rat with a rectal body temperature of 38.0° C. or greater was also excluded from the study.
Following assignment to either a test or control group, a test compound or a control was administered to the rats. Each test compound was dissolved in a vehicle of 0.5% aqueous methylcellulose solution and the final concentration of the test compound was adjusted to 1 mg/mL. Each test compound was orally administered once at a dose of 10 mL/kg. The same volume of the control (vehicle only) was administered once to the control group. Rectal body temperatures were measured at the following time points: 0.5, 1, and 2 hrs after administration.
The body temperature increase (ΔTb) for each test compound was calculated by subtracting, at each time point, the average temperature of the control group from the average temperature of the group administered that test compound. The greatest ΔTb obtained for each test compound at any of the time points is shown in Table 11 below, along with the ΔTb of the control.

IC50 [1] [nM] | IC50 [2] [nM] | IC50 [3] [nM] | solubility ([4]; pH 1.2, simulated gastric fluid, read-out: aqueous solubility at pH 1.2) [µM] | solubility ([4]; pH 6.8, aqueous buffer, read-out: aqueous solubility at pH 6.8) [µM] | ΔTb, body temperature increase [5] [°C] | SMILES
80.6 ± 7.5 | 5.8 ± 0.7 | 96 ± 2.4 | – | – | – | C[C@@H]1CN(c2ncc([C@@H](O)CO)cc2F)CCN1C(=O)Nc1nc2ccccc2s1 [A122(e), (R)—N-(benzo[d]thiazol-2-yl)-4-(5-((R)-1,2-dihydroxyethyl)-3-fluoropyridin-2-yl)-2-methylpiperazine-1-carboxamide]
23.9 ± 3.8 | 0.6 ± 0.2 | 18.4 ± 0.8 | – | – | – | C[C@@H]1CN(c2ncc([C@@H](O)CO)cc2F)CCN1C(=O)Nc1nc2ccc(F)cc2s1 [A125(e), (R)-4-(5-((R)-1,2-dihydroxyethyl)-3-fluoropyridin-2-yl)-N-(6-fluorobenzo[d]thiazol-2-yl)-2-methylpiperazine-1-carboxamide]
96 ± 18 | – | 700 | > 50 | 17 (≈ 7.64 µg/mL) | 0.2 | C[C@H]1CN(c2ncc([C@H](O)CO)cc2F)CCN1C(=O)Nc1nc2cc(F)ccc2s1 [A155(a), (S)-4-{5-[(S)-1,2-Dihydroxyethyl]-3-fluoropyridin-2-yl}-N-(5-fluorobenzo[d]thiazol-2-yl)-2-methylpiperazine-1-carboxamide]
63.7 ± 13.4 | – | 490 | – | – | 0.5 | C[C@H](O)[C@@H](O)c1cnc(N2CCN(C(=O)Nc3nc4ccc(F)cc4s3)[C@@H](C)C2)c(F)c1 [BB, (S)-4-{5-[(1S,2S)-1,2-dihydroxypropyl]-3-fluoropyridin-2-yl}-N-(6-fluorobenzo[d]thiazol-2-yl)-2-methylpiperazine-1-carboxamide]
26.9 ± 3.6 | 20.6 ± 2.6 | 96 ± 14 | – | – | – | C[C@H](O)[C@@H](O)c1cnc(N2CCN(C(=O)Nc3nc4ccc(Cl)cc4s3)CC2)c(F)c1 [C123(r), N-(6-chlorobenzo[d]thiazol-2-yl)-4-(5-((1S,2S)-1,2-dihydroxypropyl)-3-fluoropyridin-2-yl)piperazine-1-carboxamide]
